Assay results published in patent publication US6770597B2, “Benzohydrazide derivatives as herbicides and desiccant compositions containing them” (Ishihara Sangyo Kaisha, Ltd., priority 2002, dated 2004).

Experiments:
Assay type in all cases: in vivo
[1] = test system: field corn (Zea mays L., var. Dekalb 535, CORN); experiment: Greenhouse herbicide screen, post-emerge application, crop damage rating; conditions: POST emergent, 14 days after application, scale 0-100
From the text: (§1) A standard greenhouse herbicide activity screening system was used to evaluate the herbicidal efficacy and crop safety of these test compounds. Seven broadleaf weed species including redroot pigweed (Amaranthus retrofiexus, AMARE), velvetleaf (Abutilon theophrasti, ABUTH), sicklepod (Cassia obtusifolia, CASOB), ivyleaf morningglory (Ipomoea hederacea, IPOHE), lambsquarters (Chenopodium album, CHEAL), common ragweed (Ambrosia artemisiifolia L., AMBEL), and cocklebur (Xanthium strumarium, XANST) were used as test species. Four grass weed species including green foxtail (Setaria viridis, SETVI), barnyardgrass (Echinochloa crus-galli, ECHCG), johnsongrass (Sorghum halepense, SORHA), and large crabgrass (Digitaria sanguinalis, DIGSA) were also used. In addition, four crop species, field corn (Zea mays L., var. Dekalb 535, CORN), soybean (Glycine max L., var. Pella 86, SOY), upland rice (Oryza sp., var.Cocodrie, RICE) and wheat (Triticum aestivum L.) were included.
(§2) All plants were grown in 10 cm square plastic pots which were filled with a sandy loam soil mix. For pre-emerge tests, seeds were planted one day prior to application of the test compounds. For post-emerge tests, seeds were planted 8-21 days prior to the test to allow emergence and good foliage development prior to application of the test substances. At the time of the post-emerge application, plants of all species were usually at the 2-3 leaf stage of development.
(§3) All test compounds were dissolved in acetone and applied to the test units in a volume of 187 l/ha. Test materials were applied at rates ranging from 15 g ai/ha to 1000 g ai/ha using a track sprayer equipped with a TJ8001E even flow flat fan spray nozzle. Plants were arranged on a shelf so that the top of the canopy (post-emerge) or top of the soil surface (pre-emerge) was 40-45 cm below the nozzle. Pressurized air was used to force the test solution through the nozzle as it was mechanically advanced (via electrically driven chain drive) over the top of all test plants/pots. This application simulates a typical commercial field herbicide application.
(§4) Pre-emergence tests were top watered immediately after treatment to incorporate the test materials, then routinely top-watered for normal growth. Post-emerge test units were always bottom-watered.
(§5) At 14 days after application of the test materials, phytotoxicity ratings were recorded. A rating scale of 0-100 was used as previously described in Research Methods in Weed Science, 2nd edition, B. Truelove, Ed., Southern Weed Science Society, Auburn University, Auburn, Ala., 1977. Briefly, “0” corresponds to no damage and “100” corresponds to complete death of all plants in the test unit. This scale was used both to determine efficacy against weed species and damage to crop species. Herbicide activity data for various compounds of this invention, which are shown by compound No. in Tables 1-12, are shown in Tables 13 and 14.

[2] = test system: upland rice (Oryza sp., var.Cocodrie, RICE); experiment: as above; conditions: POST emergent, 14 days after application, scale 0-100
From the text: as §1, §2, §3, §4, §5

[3] = test system: field corn (Zea mays L., var. Dekalb 535, CORN); experiment: Greenhouse herbicide screen, pre-emerge application, crop damage rating; conditions: PRE emergent, 14 days after application, rating scale 0-100
From the text: as §1, §2, §3, §4, §5

[4] = test system: upland rice (Oryza sp., var.Cocodrie, RICE); experiment: as above; conditions: PRE emergent, 14 days after application, rating scale 0-100
From the text: as §1, §2, §3, §4, §5

[5] = test system: johnsongrass (Sorghum halepense, SORHA); experiment: Greenhouse herbicide screen, post-emerge application, phytotoxicity rating; conditions: POST emergent, 14 days after application, scale 0-100
Outline: (§6)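 Acetone-dissolved compounds are sprayed over pots at 15 to 1000 g ai/ha with a flat fan nozzle 40–45 cm above the target. Pre-emerge pots are top-watered immediately to incorporate; post-emerge pots are bottom-watered. Plants are rated 0–100 after 14 days.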

[6] = test system: lambsquarters (Chenopodium album, CHEAL); experiment: as above; conditions: POST emergent, 14 days after application, scale 0-100
Outline: as §6

[7] = test system: green foxtail (Setaria viridis, SETVI); experiment: as above; conditions: POST emergent, 14 days after application, scale 0-100
Outline: as §6

[8] = test system: velvetleaf (Abutilon theophrasti, ABUTH); experiment: as above; conditions: POST emergent, 14 days after application, scale 0-100
Outline: as §6

[9] = test system: large crabgrass (Digitaria sanguinalis, DIGSA); experiment: as above; conditions: POST emergent, 14 days after application, scale 0-100
Outline: as §6

[10] = test system: common ragweed (Ambrosia artemisiifolia L., AMBEL); experiment: as above; conditions: POST emergent, 14 days after application, scale 0-100
Outline: as §6

[11] = test system: barnyardgrass (Echinochloa crus-galli, ECHCG); experiment: as above; conditions: POST emergent, 14 days after application, scale 0-100
Outline: as §6

[12] = test system: redroot pigweed (Amaranthus retrofiexus, AMARE); experiment: as above; conditions: POST emergent, 14 days after application
Outline: as §6

[13] = test system: sicklepod (Cassia obtusifolia, CASOB); experiment: as above; conditions: POST emergent, 14 days after application, scale 0-100
Outline: as §6

[14] = test system: ivyleaf morningglory (Ipomoea hederacea, IPOHE); experiment: as above; conditions: POST emergent, 14 days after application, scale 0-100
Outline: as §6

[15] = test system: cocklebur (Xanthium strumarium, XANST); experiment: as above; conditions: POST emergent, 14 days after application, scale 0-100
Outline: as §6

[16] = test system: johnsongrass (Sorghum halepense, SORHA); experiment: Greenhouse herbicide screen, pre-emerge application, phytotoxicity rating; conditions: PRE emergent, 14 days after application, rating scale 0-100
Outline: as §6

[17] = test system: lambsquarters (Chenopodium album, CHEAL); experiment: as above; conditions: PRE emergent, 14 days after application, rating scale 0-100
Outline: as §6

[18] = test system: green foxtail (Setaria viridis, SETVI); experiment: as above; conditions: PRE emergent, 14 days after application, rating scale 0-100
Outline: as §6

[19] = test system: velvetleaf (Abutilon theophrasti, ABUTH); experiment: as above; conditions: PRE emergent, 14 days after application, rating scale 0-100
Outline: as §6

[20] = test system: large crabgrass (Digitaria sanguinalis, DIGSA); experiment: as above; conditions: PRE emergent, 14 days after application, rating scale 0-100
Outline: as §6

[21] = test system: common ragweed (Ambrosia artemisiifolia L., AMBEL); experiment: as above; conditions: PRE emergent, 14 days after application, rating scale 0-100
Outline: as §6

[22] = test system: barnyardgrass (Echinochloa crus-galli, ECHCG); experiment: as above; conditions: PRE emergent, 14 days after application, rating scale 0-100
Outline: as §6

[23] = test system: redroot pigweed (Amaranthus retrofiexus, AMARE); experiment: as above; conditions: PRE emergent, 14 days after application, rating scale 0-100
Outline: as §6

[24] = test system: sicklepod (Cassia obtusifolia, CASOB); experiment: as above; conditions: PRE emergent, 14 days after application, rating scale 0-100
Outline: as §6

[25] = test system: ivyleaf morningglory (Ipomoea hederacea, IPOHE); experiment: as above; conditions: PRE emergent, 14 days after application, rating scale 0-100
Outline: as §6

[26] = test system: cocklebur (Xanthium strumarium, XANST); experiment: as above; conditions: PRE emergent, 14 days after application, rating scale 0-100
Outline: as §6

CC1CCCC(C)N1NC(=O)c1cc(-n2c(=O)cc(C(F)(F)F)n(C)c2=S)c(F)cc1Cl (stereo not shown) [Compound 1-15]
75: phytotoxicity rating CASOB ([13]; 250 g ai/ha) | phytotoxicity rating IPOHE ([14]; 63 g ai/ha) | phytotoxicity rating ECHCG ([22]; 63 g ai/ha) | phytotoxicity rating XANST ([26]; 63 g ai/ha)
60: crop damage rating CORN ([1]; 250 g ai/ha)
25: crop damage rating CORN ([3]; 63 g ai/ha)
10: phytotoxicity rating DIGSA ([9]; 63 g ai/ha) | phytotoxicity rating DIGSA ([9]; 250 g ai/ha)
98: phytotoxicity rating CHEAL ([6]; 63 g ai/ha)
95: phytotoxicity rating AMBEL ([10]; 250 g ai/ha)
20: phytotoxicity rating SETVI ([7]; 63 g ai/ha)
0: crop damage rating RICE ([2]; 63 g ai/ha) | phytotoxicity rating SORHA ([5]; 63 g ai/ha)
55: crop damage rating RICE ([4]; 63 g ai/ha) | phytotoxicity rating SETVI ([7]; 250 g ai/ha)
50: phytotoxicity rating ECHCO ([11]; 63 g ai/ha)
90: phytotoxicity rating AMARE ([12]; 63 g ai/ha, scale 0-100 (0 no damage, 100 complete death)) | phytotoxicity rating CASOB ([24]; 250 g ai/ha)
80: phytotoxicity rating AMBEL ([10]; 63 g ai/ha) | phytotoxicity rating ECHCO ([11]; 250 g ai/ha)
40: crop damage rating CORN ([1]; 63 g ai/ha)
100: crop damage rating CORN ([3]; 250 g ai/ha) | phytotoxicity rating CHEAL ([6]; 250 g ai/ha) | phytotoxicity rating ABUTH ([8]; 63 g ai/ha) | phytotoxicity rating ABUTH ([8]; 250 g ai/ha) | phytotoxicity rating AMARE ([12]; 250 g ai/ha, scale 0-100) | phytotoxicity rating IPOHE ([14]; 250 g ai/ha) | phytotoxicity rating XANST ([15]; 63 g ai/ha) | phytotoxicity rating XANST ([15]; 250 g ai/ha) | phytotoxicity rating SORHA ([16]; 63 g ai/ha) | phytotoxicity rating SORHA ([16]; 250 g ai/ha) | phytotoxicity rating CHEAL ([17]; 63 g ai/ha) | phytotoxicity rating CHEAL ([17]; 250 g ai/ha) | phytotoxicity rating SETVI ([18]; 63 g ai/ha) | phytotoxicity rating SETVI ([18]; 250 g ai/ha) | phytotoxicity rating ABUTH ([19]; 63 g ai/ha) | phytotoxicity rating ABUTH ([19]; 250 g ai/ha) | phytotoxicity rating DIGSA ([20]; 63 g ai/ha) | phytotoxicity rating DIGSA ([20]; 250 g ai/ha) | phytotoxicity rating AMBEL ([21]; 63 g ai/ha) | phytotoxicity rating AMBEL ([21]; 250 g ai/ha) | phytotoxicity rating ECHCG ([22]; 250 g ai/ha) | phytotoxicity rating AMARE ([23]; 63 g ai/ha) | phytotoxicity rating AMARE ([23]; 250 g ai/ha) | phytotoxicity rating IPOHE ([25]; 63 g ai/ha) | phytotoxicity rating IPOHE ([25]; 250 g ai/ha) | phytotoxicity rating XANST ([26]; 250 g ai/ha)
45: phytotoxicity rating CASOB ([24]; 63 g ai/ha)
70: crop damage rating RICE ([4]; 250 g ai/ha) | phytotoxicity rating CASOB ([13]; 63 g ai/ha)
30: crop damage rating RICE ([2]; 250 g ai/ha) | phytotoxicity rating SORHA ([5]; 250 g ai/ha)
